Test results reported in patent US20070093520A1, “Method of treatment of diarrhea-predominant irritable bowel syndrome in a subject” (priority 2005, published 2007).

Tested on: diarrhea-predominant IBS subjects
Assay: 3007 Study: open-label 52-week safety study, adverse events and withdrawals
Conditions: C/C group

Cc1nccn1C[C@H]1CCc2c(c3cccc4c3n2CCC4)C1=O [cilansetron, (R)-(−)-4,5,6,8,9,10-hexahydro-10-[(2-methyl-1H-imidazol-1-yl)methyl]-11H-pyrido-[3,2,1-jk]-carbazol-11-one]
TEAE: Labyrinthitis NOS: 2 (<1%) n (%)
TEAE: Lacrimal Disorders: 2 (<1%) n (%)
TEAE: Lactose Intolerance: 0 n (%)
TEAE: Laryngeal and Adjacent Sites Disorders NEC (Excl Infections and Neoplasms): 2 (<1%) n (%)
TEAE: Laryngitis NOS: 2 (<1%) n (%)
TEAE: Leiomyoma NOS: 1 (<1%) n (%)
TEAE: Lethargy: 0 n (%)
TEAE: Leukopenia NOS: 2 (<1%) n (%)
TEAE: Leukopenias NEC: 2 (<1%) n (%)
TEAE: Libido Decreased: 0 n (%)
TEAE: Lid, Lash and Lacrimal Structural Disorders (Excl Congenital): 1 (<1%) n (%)
TEAE: Lipid Metabolism Disorder NOS: 1 (<1%) n (%)
TEAE: Lipid Metabolism and Deposit Disorders NEC: 1 (<1%) n (%)
TEAE: Lipoma NOS: 2 (<1%) n (%)
TEAE: Lower Respiratory Tract Signs and Symptoms: 1 (<1%) n (%)
TEAE: Lymphadenopathy: 1 (<1%) n (%)
TEAE: Lymphangitis and Lymphatic Disorders NEC: 1 (<1%) n (%)
TEAE: Meniere's Disease: 1 (<1%) n (%)
TEAE: Menorrhagia*: 1 (<1%) n (%)
TEAE: Menstruation Irregular*: 0 n (%)
TEAE: Menstruation and Uterine Bleeding NEC*: 1 (<1%) n (%)
TEAE: Menstruation with Decreased Bleeding*: 1 (<1%) n (%)
TEAE: Menstruation with Increased Bleeding*: 2 (1%) n (%)
TEAE: Mental Disorders NEC: 0 n (%)
TEAE: Mental Status Changes: 0 n (%)
TEAE: Metabolism and Nutrition Disorders: 11 (4%) n (%)
TEAE: Middle Ear Disorders NEC: 1 (<1%) n (%)
TEAE: Motion Sickness: 0 n (%)
TEAE: Myocardial Infarction: 1 (<1%) n (%)
TEAE: Nail and Nail Bed Conditions (Excl Infections and Infestations): 0 n (%)
TEAE: Nasal Congestion and Inflammations: 7 (3%) n (%)
TEAE: Neoplasms Benign Site Unspecified NEC: 1 (<1%) n (%)
TEAE: Neoplasms Benign, Malignant and Unspecified (Incl Cysts and Polyps): 9 (4%) n (%)
TEAE: Normal Pregnancy, Labour and Delivery*: 1 (<1%) n (%)
TEAE: Ocular Disorders NEC: 0 n (%)
TEAE: Ocular Nerve and Muscle Disorders: 0 n (%)
TEAE: Oedema NEC: 4 (2%) n (%)
TEAE: Oedema NOS: 0 n (%)
TEAE: Oedema Peripheral: 4 (2%) n (%)
TEAE: Ovarian Cancer NOS*: 1 (<1%) n (%)
TEAE: Ovarian Cystadenofibroma*: 0 n (%)
TEAE: Ovarian Neoplasms Benign*: 0 n (%)
TEAE: Ovarian Neoplasms Malignant (Excl Germ Cell)*: 1 (<1%) n (%)
TEAE: Pain NOS: 2 (<1%) n (%)
TEAE: Pain and Discomfort NEC: 5 (2%) n (%)
TEAE: Palpitations: 2 (<1%) n (%)
TEAE: Panic Attack: 0 n (%)
TEAE: Panic Symptoms: 0 n (%)
TEAE: Papulosquamous Conditions: 0 n (%)
TEAE: Paranasal Sinus Disorders (Excl Infections and Neoplasms): 6 (2%) n (%)
TEAE: Paranasal Sinus Hypersecretion: 1 (<1%) n (%)
TEAE: Partial Vision Loss: 0 n (%)
TEAE: Pelvic Pain NOS: 0 n (%)
TEAE: Penile Disorders NEC (Excl Erection and Ejaculation)*: 0 n (%)
TEAE: Penile Haemorrhage*: 0 n (%)
TEAE: Perception Disturbances: 0 n (%)
TEAE: Peripheral Embolism NOS: 0 n (%)
TEAE: Peripheral Embolism and Thrombosis: 0 n (%)
TEAE: Peripheral Vascular Disorders NEC: 2 (<1%) n (%)
TEAE: Pharyngitis: 3 (1%) n (%)
TEAE: Polydipsia: 0 n (%)
TEAE: Polyuria: 0 n (%)
TEAE: Posterior Capsule Opacification: 0 n (%)
TEAE: Postnasal Drip: 0 n (%)
TEAE: Pregnancy NOS*: 1 (<1%) n (%)
TEAE: Pregnancy, Puerperium and Perinatal Conditions: 1 (<1%) n (%)
TEAE: Premenopause*: 0 n (%)
TEAE: Premenstrual Syndrome*: 1 (<1%) n (%)
TEAE: Productive Cough: 1 (<1%) n (%)
TEAE: Prostate and Seminal Vesicles Infections and Inflammations*: 2 (2%) n (%)
TEAE: Prostatitis*: 2 (2%) n (%)
TEAE: Proteinuria: 1 (<1%) n (%)
TEAE: Pruritus NEC: 3 (1%) n (%)
TEAE: Pruritus NOS: 3 (1%) n (%)
TEAE: Psoriasis: 0 n (%)
TEAE: Psychiatric Disorders: 15 (6%) n (%)
TEAE: Psychotic Disorder NEC: 0 n (%)
TEAE: Psychotic Disorder NOS: 0 n (%)
TEAE: Purine Metabolism Disorders NEC: 2 (<1%) n (%)
TEAE: Pyrexia: 2 (<1%) n (%)
TEAE: Rash Macular: 0 n (%)
TEAE: Rash NOS: 4 (2%) n (%)
TEAE: Rashes, Eruptions and Exanthems NEC: 4 (2%) n (%)
TEAE: Rate and Rhythm Disorders NEC: 2 (<1%) n (%)
TEAE: Refractive Errors NOS: 1 (<1%) n (%)
TEAE: Refractive and Accommodative Disorders: 1 (<1%) n (%)
TEAE: Renal Lithiasis: 3 (1%) n (%)
TEAE: Renal and Urinary Disorders: 13 (5%) n (%)
TEAE: Reproductive System and Breast Disorders: 12 (5%) n (%)
TEAE: Reproductive Tract Signs and Symptoms NEC: 1 (<1%) n (%)
TEAE: Respiratory Tract Congestion: 1 (<1%) n (%)
TEAE: Respiratory Tract Disorders NEC: 1 (<1%) n (%)
TEAE: Respiratory, Thoracic and Mediastinal Disorders: 28 (11%) n (%)
TEAE: Retinal Detachment: 1 (<1%) n (%)
TEAE: Retinal Structural Change, Deposit and Degeneration: 1 (<1%) n (%)
TEAE: Rhinitis Allergic NOS: 3 (1%) n (%)
TEAE: Rhinitis NOS: 3 (1%) n (%)
TEAE: Rhinitis Seasonal: 1 (<1%) n (%)
TEAE: Rosacea: 1 (<1%) n (%)
TEAE: Rosaceas: 1 (<1%) n (%)
TEAE: Seasonal Allergy: 4 (2%) n (%)
TEAE: Sexual Desire Disorders: 0 n (%)
TEAE: Sick Sinus Syndrome: 0 n (%)
TEAE: Sinus Arrhythmia: 0 n (%)
TEAE: Sinus Congestion: 5 (2%) n (%)
TEAE: Skin Disorder NOS: 0 n (%)
TEAE: Skin Injuries and Mechanical Dermatoses: 1 (<1%) n (%)
TEAE: Skin Lesion NOS: 1 (<1%) n (%)
TEAE: Skin Neoplasms Benign: 0 n (%)
TEAE: Skin Neoplasms Malignant and Unspecified (Excl Melanoma): 2 (<1%) n (%)
TEAE: Skin Ulcer: 0 n (%)
TEAE: Skin and Subcutaneous Tissue Disorders: 14 (5%) n (%)
TEAE: Skin and Subcutaneous Tissue Ulcerations: 0 n (%)
TEAE: Social Circumstances: 0 n (%)
TEAE: Soft Tissue Neoplasms Benign NEC: 3 (1%) n (%)
TEAE: Strabismus: 0 n (%)
TEAE: Stress Incontinence: 1 (<1%) n (%)
TEAE: Stress Symptoms: 0 n (%)
TEAE: Structural and Other Bile Duct Disorders: 0 n (%)
TEAE: Sugar Intolerance (Excl Glucose Intolerance): 0 n (%)
TEAE: Suicidal Ideation: 0 n (%)
TEAE: Suicidal and Self-Injurious Behaviour: 0 n (%)
TEAE: Supraventricular Arrhythmias: 1 (<1%) n (%)
TEAE: Supraventricular Tachycardia: 0 n (%)
TEAE: Surgical and Medical Procedures: 1 (<1%) n (%)
TEAE: Sweating Increased: 0 n (%)
TEAE: Swelling Face: 0 n (%)
TEAE: Tachycardia NOS: 1 (<1%) n (%)
TEAE: Tenderness NOS: 0 n (%)
TEAE: Thrombocytopenia: 0 n (%)
TEAE: Thrombocytopenias: 0 n (%)
TEAE: Thrombophlebitis Superficial: 0 n (%)
TEAE: Thyroid Disorders NEC: 1 (<1%) n (%)
TEAE: Thyroid Hypofunction Disorders: 1 (<1%) n (%)
TEAE: Thyroid Neoplasms: 0 n (%)
TEAE: Thyroid Nodule: 0 n (%)
TEAE: Tinnitus: 1 (<1%) n (%)
TEAE: Total Fluid Volume Decreased: 1 (<1%) n (%)
TEAE: Tympanic Membrane Disorder NOS: 0 n (%)
TEAE: Tympanic Membrane Disorders (Excl Infections): 0 n (%)
TEAE: Upper Respiratory Tract Signs and Symptoms: 3 (1%) n (%)
TEAE: Urinary Abnormalities: 5 (2%) n (%)
TEAE: Urinary Frequency: 2 (<1%) n (%)
TEAE: Urinary Incontinence: 1 (<1%) n (%)
TEAE: Urinary Retention: 1 (<1%) n (%)
TEAE: Urinary Tract Lithiasis (Excl Renal): 1 (<1%) n (%)
TEAE: Urinary Tract Signs and Symptoms NEC: 0 n (%)
TEAE: Urine Abnormal NOS: 1 (<1%) n (%)
TEAE: Urticaria NOS: 1 (<1%) n (%)
TEAE: Urticarias: 1 (<1%) n (%)
TEAE: Uterine Disorders NEC*: 2 (1%) n (%)
TEAE: Uterine Fibroids*: 1 (<1%) n (%)
TEAE: Uterine Neoplasms Benign*: 1 (<1%) n (%)
TEAE: Uterine Neoplasms*: 2 (1%) n (%)
TEAE: Uterine Polyp NOS*: 2 (1%) n (%)
TEAE: Vaginal Cyst*: 1 (<1%) n (%)
TEAE: Vaginal Lesion*: 1 (<1%) n (%)
TEAE: Varicose Vein Ruptured: 2 (<1%) n (%)
TEAE: Varicose Veins Non-Site Specific: 2 (<1%) n (%)
TEAE: Vascular Disorders: 13 (5%) n (%)
TEAE: Vascular Hypertensive Disorders NEC: 8 (3%) n (%)
TEAE: Vascular Hypotensive Disorders: 0 n (%)
TEAE: Ventricular Arrhythmias and Cardiac Arrest: 1 (<1%) n (%)
TEAE: Ventricular Extrasystoles: 1 (<1%) n (%)
TEAE: Vertigo: 1 (<1%) n (%)
TEAE: Visual Acuity Reduced: 0 n (%)
TEAE: Vitreous Disorder NOS: 0 n (%)
TEAE: Vulvovaginal Cysts and Neoplasms*: 1 (<1%) n (%)
TEAE: Vulvovaginal Dryness*: 0 n (%)
